# Test results taken from patent US9758492B2, “IDO inhibitors” (Bristol-Myers Squibb Company, priority 2013, dated 2017).
# Molecular target: IDO (Homo sapiens, UniProt P14902)
# Assay: LLE_IDO_ABS_DR (IDO assay)
# Sequence of IDO (P14902 whole entry): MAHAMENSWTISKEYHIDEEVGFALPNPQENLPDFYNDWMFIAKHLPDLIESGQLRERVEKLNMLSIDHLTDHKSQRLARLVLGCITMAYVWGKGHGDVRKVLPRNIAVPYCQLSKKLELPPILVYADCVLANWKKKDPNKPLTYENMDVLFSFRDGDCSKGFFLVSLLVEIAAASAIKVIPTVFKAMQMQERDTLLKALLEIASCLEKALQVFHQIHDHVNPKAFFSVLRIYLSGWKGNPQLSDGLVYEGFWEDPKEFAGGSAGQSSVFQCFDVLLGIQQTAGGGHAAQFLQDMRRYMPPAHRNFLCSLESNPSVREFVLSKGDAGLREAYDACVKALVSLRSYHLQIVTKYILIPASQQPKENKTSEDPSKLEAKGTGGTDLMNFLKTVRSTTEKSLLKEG
row,SMILES,IC50 [µM]
1,"Cc1ccc(NC(=O)Nc2cc(-c3ccccc3-c3nnn[nH]3)ccc2N2CCC(c3ccccc3)C2)cn1 (racemic) [Example 368, (±)-1-(6-Methylpyridin-3-yl)-3-(4-(3-phenylpyrrolidin-1-yl)-2′-(1H-tetrazol-5-yl)-[1,1′-biphenyl]-3-yl)urea]",2.5
2,"O=C(Nc1ccc(OC(F)(F)F)cc1)Nc1cc(-c2ccccc2-c2nnn[nH]2)ccc1N1CCC(c2ccccc2)C1 (racemic) [Example 369, (±)-1-(4-(3-Phenylpyrrolidin-1-yl)-2′-(1H-tetrazol-5-yl)-[1,1′-biphenyl]-3-yl)-3-(4-(trifluoromethoxy)phenyl)urea]",0.52
3,"O=C(Nc1ccc(F)nc1)Nc1cc(-c2ccccc2-c2nnn[nH]2)ccc1N1CCC(c2ccccc2)C1 (racemic) [Example 371, (±)-1-(6-Fluoropyridin-3-yl)-3-(4-(3-phenylpyrrolidin-1-yl)-2′-(1H-tetrazol-5-yl)-[1,1′-biphenyl]-3-yl)urea]",3.74
4,"Cc1cc(NC(=O)Nc2cc(-c3ccccc3-c3nnn[nH]3)ccc2N2CCC(c3ccccc3)C2)on1 (racemic) [Example 372, (±)-1-(3-Methylisoxazol-5-yl)-3-(4-(3-phenylpyrrolidin-1-yl)-2′-(1H-tetrazol-5-yl)-[1,1′-biphenyl]-3-yl)urea]",1.94
5,"Cc1ccc(NC(=O)Nc2cc(-c3ccccc3C(=O)O)ccc2N(CCC(F)(F)F)Cc2ccccc2)cc1 [Example 8, 4′-(Benzyl(3,3,3-trifluoropropyl)amino)-3′-(3-(p-tolyl)ureido)-[1,1′-biphenyl]-2-carboxylic acid]",0.18
6,"Cc1ccc(NC(=O)Nc2cc(-c3cc(F)ccc3C(=O)O)ccc2N(CCC(F)(F)F)Cc2ccccc2)cc1 [Example 9, 4′-(Benzyl(3,3,3-trifluoropropyl)amino)-5-fluoro-3′-(3-(p-tolyl)ureido)-[1,1′-biphenyl]-2-carboxylic acid]",0.35
7,"Cc1ccc(NC(=O)Nc2cc(-c3ccccc3-c3nnn[nH]3)ccc2N(CCC(F)(F)F)Cc2ccccc2)cc1 [Example 10, 1-(4-(Benzyl(3,3,3-trifluoropropyl)amino)-2′-(1H-tetrazol-5-yl)-[1,1′-biphenyl]-3-yl)-3-(p-tolyl)urea]",0.1
8,"Cc1ccc(NC(=O)Nc2cc(-c3ccccc3C(=O)O)ccc2N(CCC(F)(F)F)Cc2cccc(Cl)c2)cc1 [Example 11, 4′-((3-Chlorobenzyl)(3,3,3-trifluoropropyl)amino)-3′-(3-(p-tolyl)ureido)-[1,1′-biphenyl]-2-carboxylic acid]",0.25
9,"Cc1ccc(NC(=O)Nc2cc(-c3cc(F)ccc3C(=O)O)ccc2N(CCC(F)(F)F)Cc2cccc(Cl)c2)cc1 [Example 12, 4′-((3-Chlorobenzyl)(3,3,3-trifluoropropyl)amino)-5-fluoro-3′-(3-(p-tolyl)ureido)-[1,1′-biphenyl]-2-carboxylic acid]",0.22

# These reach a lower IC50. Values come first.
row,IC50 [µM],SMILES
1,0.08,"Cc1ccc(NC(=O)Nc2cc(-c3ccccc3NS(=O)(=O)C(F)(F)F)ccc2N(CC(C)C)CC(C)C)cc1 [Example 4, N-(4′-(Diisobutylamino)-3′-(3-p-tolylureido)biphenyl-2-yl)-1,1,1-trifluoromethanesulfonamide]"
2,0.00405,"Cc1ccc(NC(=O)Nc2cc(-c3ccccc3-c3nnn[nH]3)cc(F)c2N(CC(C)C)CC(C)C)cc1 [Example 5, 1-(4-(Diisobutylamino)-5-fluoro-2′-(1H-tetrazol-5-yl)biphenyl-3-yl)-3-p-tolylurea]"
3,0.00647,"Cc1ccc(NC(=O)Nc2cc(-c3ccccc3C(=O)O)cc(F)c2N(CC(C)C)CC(C)C)cc1 [Example 6, 4′-(Diisobutylamino)-3′-fluoro-5′-(3-p-tolylureido)biphenyl-2-carboxylic acid]"
4,0.02,"CC(C)CN(CC(C)C)c1ccc(-c2ccccc2-c2nnn[nH]2)cc1NC(=O)Nc1nccs1 [Example 7, 1-(4-(Diisobutylamino)-2′-(1H-tetrazol-5-yl)biphenyl-3-yl)-3-(thiazol-2-yl)urea]"
